Reference: patent US20260007133A1, “HERBICIDAL COMPOSITION COMPRISING AZINE COMPOUNDS” (BASF SE, priority 2022, published 2026)
Where two headings read alike, the source gives them in different places.

Experiments:
Format in all cases: in vivo
Setaria viridis [1] = test: Greenhouse pre-emergence (PRE) herbicidal test on SETVI; conditions: Setaria viridis, pre-emergence
In short: (§1)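 Seeds sown in loamy sand (~3.0% humus); compounds in water applied by fine nozzles directly after sowing, then pots irrigated and hooded until rooting. Plants held at 10-25° C or 20-35° C by species; damage scored 0-100 (100 = no emergence/complete destruction) 20 days after treatment.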

Echinochloa crus-galli = test: Greenhouse pre-emergence (PRE) herbicidal test on ECHCG; conditions: Echinochloa crus-galli, pre-emergence, PRE
Alopecurus myosuroides = test: Greenhouse pre-emergence (PRE) herbicidal test on ALOMY
In short: (§2)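 Seeds were sown per species in loamy sand with ~3.0% humus, treated pre-emergence and kept at 10-25° C or 20-35° C depending on species. Damage was scored at 20 days after treatment on a 0-100 scale (100 = no emergence or complete destruction of above-ground parts, 0 = no damage).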

Ipomoea hederacea = test: Greenhouse post-emergence (POST) herbicidal test on IPOHE; conditions: Ipomoea hederacea, post-emergence
In short: (§3)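 For this test, compounds formulated as a 5% by weight emulsion concentrate were diluted into spray liquor and applied post-emergence. Species were kept at 10-25° C or 20-35° C and injury was scored at 20 DAT on a 0–100 scale.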

Lolium multiflorum = test: Greenhouse pre-emergence (PRE) herbicidal test on LOLMU
In short: as §2

Geranium pusillum = test: Greenhouse post-emergence (POST) herbicidal test on GERPU; conditions: Geranium pusillum, post-emergence; for inhibition at 2 g/ha: use rate 2 gai/ha, read-out: % activity
In short: as §3

AMAPA [2] = test: Greenhouse post-emergence (POST) herbicidal test on AMAPA; conditions: post-emergence, 480 h, use rate 2 gai/ha, 20 DAT
Avena fatua = test: Greenhouse pre-emergence (PRE) herbicidal test on AVEFA; conditions: use rate 8 gai/ha
In short: as §1

Setaria viridis [3] = test: Greenhouse post-emergence (POST) herbicidal test on SETVI; conditions: 480 h, 20 DAT
In short: as §3

Commelina benghalensis = test: Greenhouse post-emergence (POST) herbicidal test on COMBE; conditions: 480 h, use rate 4 gai/ha, 20 DAT
In short: as §3

AMAPA [4] = test: Greenhouse pre-emergence (PRE) herbicidal test on AMAPA; conditions: pre-emergence; for inhibition at 8 g/ha: use rate 8 gai/ha
Polygonum convolvulus = test: Greenhouse pre-emergence (PRE) herbicidal test on POLCO; conditions: Fallopia convolvulus, pre-emergence, use rate 8 gai/ha
Excerpt: The culture containers used were plastic pots containing loamy sand with approximately 3.0% of humus as substrate. The seeds of the test plants were sown separately for each species.
For the pre-emergence treatment, the active compounds, suspended or emulsified in water, were applied directly after sowing by means of finely distributing nozzles. The containers were irrigated gently to promote germination and growth and subsequently covered with transparent plastic hoods until the plants had rooted. This cover caused uniform germination of the test plants unless this was adversely affected by the active compounds.
Depending on the species, the plants were kept at 10-25° C. and 20-35° C., respectively.
The test period extended over 2 to 4 weeks. During this time, the plants were tended and their response to the individual treatments was evaluated.
Evaluation was carried out using a scale from 0 to 100. 100 means no emergence of the plants, or complete destruction of at least the above-ground parts, and 0 means no damage or normal course of growth. A good herbicidal activity is given at values of at least 70, and very good herbicidal activity is given at values of at least 85.
If not stated differently, the respective components A and B, and if appropriate, C were formulated as a 5% by weight strength emulsion concentrate and, with addition of the amount of solvent system, introduced into the spray liquor used for applying the active compound.
As indicated application was either post emergent (POST) at the respective growth stage (GS) of the weed (BBCH code), or pre-emergent (PRE).
Assessment was 20 days after treatment (DAT).

[5] = 240 h, use rate 4 gai/ha, 10 DAT
[6] = 240 h, use rate 16 gai/ha, 10 DAT

## COc1c(Br)cc(F)c(F)c1Nc1nc(N)nc(C(C)(C)F)n1 [Compound I-2]
Setaria viridis [1]; 432 h, PRE, SETVI, I-2 solo 2 gai/ha, 18 DAT
  pest or weed control at 2 g/ha: 70%
Setaria viridis [1]; 480 h, PRE, 2 gai/ha, 20 DAT
  pest or weed control at 2 g/ha: 10%
Setaria viridis [1]; 480 h, PRE, SETVI, 2 gai/ha, 20 DAT, read-out: % activity solo application
  inhibition at 2 g/ha: 25%
Setaria viridis [1]; 480 h, SETVI PRE, 20 DAT, use rate 2 gai/ha, read-out: % activity
  inhibition at 2 g/ha: 10%
Setaria viridis [1]; PRE, SETVI, use rate 2 gai/ha, read-out: % activity
  inhibition at 2 g/ha: 10%
Setaria viridis [1]; PRE, SETVI, use rate 4 gai/ha
  inhibition at 4 g/ha: 30%
Echinochloa crus-galli; [5]
  inhibition at 4 g/ha: 20%
Echinochloa crus-galli; 240 h, use rate 8 gai/ha, 10 DAT, read-out: % activity
  inhibition at 8 g/ha: 20%
Echinochloa crus-galli; [6]
  inhibition at 16 g/ha: 25%
Echinochloa crus-galli; 432 h, ECHCG, I-2 solo 2 gai/ha, 18 DAT
  pest or weed control at 2 g/ha: 10%
Echinochloa crus-galli; 432 h, ECHCG, I-2 solo 8 gai/ha, 18 DAT
  pest or weed control at 8 g/ha: 25%
Echinochloa crus-galli; 480 h, ECHCG, 2 gai/ha, 20 DAT, read-out: % activity solo application
  inhibition at 2 g/ha: 0%
Echinochloa crus-galli; 480 h, ECHCG, 8 gai/ha, 20 DAT, read-out: % activity solo application
  inhibition at 8 g/ha: 90%
Echinochloa crus-galli; 480 h, ECHCG, use rate 2 gai/ha, 20 DAT, read-out: solo application % activity
  inhibition at 2 g/ha: 0%
Echinochloa crus-galli; 480 h, ECHCG, use rate 8 gai/ha, 20 DAT, read-out: solo application % activity
  inhibition at 8 g/ha: 90%
Echinochloa crus-galli; 480 h, 2 gai/ha, 20 DAT
  pest or weed control at 2 g/ha: 55%
Alopecurus myosuroides; ALOMY PRE, use rate 8 gai/ha
  % activity: 85%
Alopecurus myosuroides; Alopecurus myosuroides, pre-emergence, 432 h, PRE, ALOMY, I-2 solo 2 gai/ha, 18 DAT, read-out: % activity
  pest or weed control at 2 g/ha: 5%
Alopecurus myosuroides; Alopecurus myosuroides, pre-emergence, 432 h, PRE, ALOMY, I-2 solo 8 gai/ha, 18 DAT
  pest or weed control at 8 g/ha: 75%
Alopecurus myosuroides; Alopecurus myosuroides, pre-emergence, 480 h, PRE, 8 gai/ha, 20 DAT
  pest or weed control at 8 g/ha: 5%
Alopecurus myosuroides; Alopecurus myosuroides, pre-emergence, 480 h, PRE, ALOMY, 2 gai/ha, 20 DAT, read-out: % activity solo application
  inhibition at 2 g/ha: 20%
Alopecurus myosuroides; Alopecurus myosuroides, pre-emergence, 480 h, PRE, ALOMY, 8 gai/ha, 20 DAT, read-out: % activity solo application
  inhibition at 8 g/ha: 75%
Alopecurus myosuroides; Alopecurus myosuroides, pre-emergence, 480 h, PRE, ALOMY, use rate 8 gai/ha, 20 DAT, read-out: solo application % activity
  inhibition at 8 g/ha: 75%
Alopecurus myosuroides; Alopecurus myosuroides, pre-emergence, 480 h, PRE, ALOMY, use rate 16 gai/ha, 20 DAT
  inhibition at 16 g/ha: 95%
Alopecurus myosuroides; Alopecurus myosuroides, pre-emergence, 480 h, PRE, use rate 2 gai/ha, 20 DAT, read-out: % activity
  inhibition at 2 g/ha: 40%
Alopecurus myosuroides; Alopecurus myosuroides, pre-emergence, ALOMY PRE, use rate 8 gai/ha, read-out: % activity
  inhibition at 8 g/ha: 70%
Alopecurus myosuroides; Alopecurus myosuroides, pre-emergence, PRE, ALOMY, use rate 2 gai/ha, read-out: % activity
  inhibition at 2 g/ha: 20%
Ipomoea hederacea; 480 h, IPOHE POST, 20 DAT, use rate 2 gai/ha, read-out: % activity
  inhibition at 2 g/ha: 30%
Ipomoea hederacea; 480 h, IPOHE POST, 20 DAT, use rate 8 gai/ha, read-out: % activity
  inhibition at 8 g/ha: 80%
Ipomoea hederacea; 480 h, POST, 2 gai/ha, 20 DAT
  pest or weed control at 2 g/ha: 30%
Ipomoea hederacea; 480 h, POST, 8 gai/ha, 20 DAT
  pest or weed control at 8 g/ha: 80%
Ipomoea hederacea; 480 h, POST, IPOHE, 2 gai/ha, 20 DAT, read-out: % activity solo application
  inhibition at 2 g/ha: 30%
Ipomoea hederacea; 480 h, POST, IPOHE, use rate 2 gai/ha, 20 DAT, read-out: % activity
  inhibition at 2 g/ha: 10%
Ipomoea hederacea; 480 h, POST, IPOHE, use rate 4 gai/ha, 20 DAT
  inhibition at 4 g/ha: 35%
Ipomoea hederacea; POST, IPOHE, use rate 2 gai/ha, read-out: % activity
  inhibition at 2 g/ha: 30%
Lolium multiflorum; LOLMU PRE, use rate 2 gai/ha
  % activity: 30%
Lolium multiflorum; Lolium multiflorum, pre-emergence, 432 h, PRE, LOLMU, I-2 solo 2 gai/ha, 18 DAT, read-out: % activity
  pest or weed control at 2 g/ha: 0%
Lolium multiflorum; Lolium multiflorum, pre-emergence, 432 h, PRE, LOLMU, I-2 solo 8 gai/ha, 18 DAT
  pest or weed control at 8 g/ha: 30%
Lolium multiflorum; Lolium multiflorum, pre-emergence, 480 h, LOLMU PRE, 20 DAT, use rate 2 gai/ha, read-out: % activity
  inhibition at 2 g/ha: 10%
Lolium multiflorum; Lolium multiflorum, pre-emergence, 480 h, LOLMU PRE, 20 DAT, use rate 8 gai/ha, read-out: % activity
  inhibition at 8 g/ha: 15%
Lolium multiflorum; Lolium multiflorum, pre-emergence, 480 h, PRE, 2 gai/ha, 20 DAT, read-out: % activity
  pest or weed control at 2 g/ha: 10%
Lolium multiflorum; Lolium multiflorum, pre-emergence, 480 h, PRE, LOLMU, 2 gai/ha, 20 DAT, read-out: % activity solo application
  inhibition at 2 g/ha: 15%
Lolium multiflorum; Lolium multiflorum, pre-emergence, 480 h, PRE, LOLMU, 8 gai/ha, 20 DAT, read-out: % activity solo application
  inhibition at 8 g/ha: 90%
Lolium multiflorum; Lolium multiflorum, pre-emergence, 480 h, PRE, LOLMU, use rate 2 gai/ha, 20 DAT, read-out: solo application % activity
  inhibition at 2 g/ha: 15%
Lolium multiflorum; Lolium multiflorum, pre-emergence, 480 h, PRE, use rate 2 gai/ha, 20 DAT, read-out: % activity
  inhibition at 2 g/ha: 20%
Lolium multiflorum; Lolium multiflorum, pre-emergence, 480 h, PRE, use rate 8 gai/ha, 20 DAT, read-out: % activity
  inhibition at 8 g/ha: 85%
Lolium multiflorum; Lolium multiflorum, pre-emergence, LOLMU PRE, use rate 2 gai/ha, read-out: % activity
  inhibition at 2 g/ha: 35%
Lolium multiflorum; Lolium multiflorum, pre-emergence, PRE, LOLMU, use rate 2 gai/ha, read-out: % activity
  inhibition at 2 g/ha: 40%
Lolium multiflorum; Lolium multiflorum, pre-emergence, PRE, LOLMU, use rate 8 gai/ha, read-out: % activity
  inhibition at 8 g/ha: 60%
Geranium pusillum; 432 h, POST, GERPU, I-2 solo 2 gai/ha, 18 DAT
  pest or weed control at 2 g/ha: 40%
Geranium pusillum; 432 h, POST, GERPU, I-2 solo 8 gai/ha, 18 DAT
  pest or weed control at 8 g/ha: 50%
Geranium pusillum; 480 h, GERPU POST, 20 DAT
  inhibition at 2 g/ha: 20%
Geranium pusillum; 480 h, POST, 2 gai/ha, 20 DAT
  pest or weed control at 2 g/ha: 20%
Geranium pusillum; 480 h, POST, 8 gai/ha, 20 DAT
  pest or weed control at 8 g/ha: 25%
Geranium pusillum; POST, GERPU
  inhibition at 2 g/ha: 30%
AMAPA [2]
  inhibition at 2 g/ha: 30%
Avena fatua
  inhibition at 8 g/ha: 50%
Setaria viridis [3]; use rate 4 gai/ha
  inhibition at 4 g/ha: 20%
Setaria viridis [3]; use rate 8 gai/ha
  inhibition at 8 g/ha: 25%
Commelina benghalensis
  inhibition at 4 g/ha: 0%
AMAPA [4]; [5]
  inhibition at 4 g/ha: 40%
AMAPA [4]; 240 h, 10 DAT
  inhibition at 8 g/ha: 70%
AMAPA [4]; [6]
  inhibition at 16 g/ha: 75%
AMAPA [4]; 480 h, use rate 2 gai/ha, 20 DAT
  inhibition at 2 g/ha: 40%
AMAPA [4]; 480 h, 20 DAT
  inhibition at 8 g/ha: 75%
Polygonum convolvulus
  inhibition at 8 g/ha: 80%
